pIC50: −log10 of the molar value.
Tests used:
hSGLT1 = molecular target: T1, hSGLT1 (Homo sapiens, UniProt P13866); assay: [14C]-AMG uptake assay in HEK293-hSGLT1 cells; format: cell-based; details: HEK293-hSGLT1 stable cell line
T1 construct: FLAG; expressed in transfected cells
T1 sequence (P13866 1-664): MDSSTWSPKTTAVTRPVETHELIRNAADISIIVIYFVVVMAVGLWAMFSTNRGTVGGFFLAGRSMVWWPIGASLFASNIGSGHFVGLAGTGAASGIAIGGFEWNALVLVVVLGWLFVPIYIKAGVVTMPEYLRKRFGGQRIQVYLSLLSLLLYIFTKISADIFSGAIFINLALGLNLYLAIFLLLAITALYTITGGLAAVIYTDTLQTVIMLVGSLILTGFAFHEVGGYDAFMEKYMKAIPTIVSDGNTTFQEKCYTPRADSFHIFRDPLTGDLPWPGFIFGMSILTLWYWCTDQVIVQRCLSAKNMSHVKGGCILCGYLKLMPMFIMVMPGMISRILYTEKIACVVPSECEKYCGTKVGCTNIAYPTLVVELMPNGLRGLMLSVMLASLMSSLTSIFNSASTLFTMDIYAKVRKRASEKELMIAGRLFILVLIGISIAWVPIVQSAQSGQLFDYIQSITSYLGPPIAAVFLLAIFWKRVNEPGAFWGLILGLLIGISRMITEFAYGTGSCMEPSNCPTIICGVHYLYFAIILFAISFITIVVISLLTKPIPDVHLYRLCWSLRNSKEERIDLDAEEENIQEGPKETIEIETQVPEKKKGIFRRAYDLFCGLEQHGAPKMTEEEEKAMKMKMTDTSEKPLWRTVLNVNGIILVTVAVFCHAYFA
Experimental: (§1) For the evaluation of the pharmaceutical efficacies of the compounds as a SGLT inhibitor, a glucose uptake assay was conducted by using stable cell lines, i.e., HEK293-hSGLT1 and HEK293-hSGLT2. The stable cell lines were prepared by transfection of human embryonic kidney 293 (HEK293) cell line with pcDNA3.1(+)-FLAG-hSGLT1 and pcDNA3.1(+)-FLAG-hSGLT2 vectors.
(§2) The cells were seeded in a 96-well poly-D-lysine (PDL) coated plate at a density of 2.5×10^4 cells/well and cultured in a cell culture incubator for one day at 37° C., 5% CO2. Then, the cells were washed once with 1× assay buffer (140 mM NaCl, 5 mM KCl, 2.5 mM CaCl2, 1 mM MgSO4.7H2O, 1 mM KH2PO4, 10 mM HEPES) and pre-incubated in a cell culture incubator for 30 minutes with 1× assay buffer at 37° C., 5% CO2. Each compound obtained in the Examples was 10-fold diluted with 1× assay buffer. The diluted compounds were added to the plate at various concentrations and then cultured in a cell culture incubator for 1 hour at 37° C., 5% CO2.
(§3) Radioactive [^14C]-alpha-methyl-D-glucopyranoside (Cat# NEC659250UC, Perkin Elmer) was diluted with 1× assay buffer at a concentration of 0.2 μCi. The diluted [^14C]-AMG was added to all the wells in plate in the same amount, and the cells were cultured in a cell culture incubator for 2 hours at 37° C., 5% CO2. The cells were washed three times with cold Dulbecco's Phosphate buffer saline (DPBS) and then lysed with 0.2 N NaOH for 10 minutes at room temperature with shaking. After addition of MicroScint 20 fluid, the cells were allowed to shake for 15 minutes at room temperature, and then the activity of [^14C]AMG was quantified on a β-scintillation counter. IC50 of each of the compounds was determined by GraphPad Prism 4.0 software.

hSGLT2 = molecular target: T2, hSGLT2 (Homo sapiens, UniProt P31639); assay: [14C]-AMG uptake assay in HEK293-hSGLT2 cells; format: cell-based; details: HEK293-hSGLT2 stable cell line
T2 construct: FLAG; expressed in transfected cells
T2 sequence (P31639 1-672): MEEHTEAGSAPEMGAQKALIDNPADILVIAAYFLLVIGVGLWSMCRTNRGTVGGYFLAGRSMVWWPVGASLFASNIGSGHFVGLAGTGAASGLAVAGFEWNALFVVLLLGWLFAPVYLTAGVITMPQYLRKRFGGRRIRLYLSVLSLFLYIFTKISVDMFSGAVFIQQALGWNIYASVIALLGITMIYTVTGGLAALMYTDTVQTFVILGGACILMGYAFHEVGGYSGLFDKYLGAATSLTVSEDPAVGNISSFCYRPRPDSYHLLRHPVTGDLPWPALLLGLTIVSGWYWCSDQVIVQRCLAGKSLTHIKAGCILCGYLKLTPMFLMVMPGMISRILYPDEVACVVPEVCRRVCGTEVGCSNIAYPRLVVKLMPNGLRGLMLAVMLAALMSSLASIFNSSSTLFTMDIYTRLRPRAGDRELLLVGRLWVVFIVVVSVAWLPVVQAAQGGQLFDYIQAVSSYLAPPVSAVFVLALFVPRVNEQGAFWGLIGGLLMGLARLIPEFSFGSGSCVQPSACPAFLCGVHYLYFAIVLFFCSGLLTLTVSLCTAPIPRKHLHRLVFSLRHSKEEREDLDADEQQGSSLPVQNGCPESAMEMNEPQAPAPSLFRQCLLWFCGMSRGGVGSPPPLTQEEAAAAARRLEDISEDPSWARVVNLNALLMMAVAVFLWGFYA
Experimental: as §1, §2, §3

C57BL/6 male mice = assay: Urinary glucose excretion test (UGE test); format: in vivo; details: 3 mg/kg oral (Examples 13 to 38), 2 g/kg glucose after 30 minutes, urine collected for 24 hours
Experimental: The pharmaceutical efficacies of the compounds prepared in the Examples were investigated by a urinary glucose excretion test using C57BL/6 male mice (8-week-old, prepared and supplied from Orient Chemical Co. Ltd.).
Two mice were used in each group. The mice were fasted for 16 hours, and the compound of each of the Examples [10 mg/kg of the compound of Examples 1 to 12; and 3 mg/kg of the compound of Examples 13 to 38] was dissolved in a vehicle [a mixed solution of 5% 1-methyl-2-pyrrolidinone, 20% PEG, and 75% 20 mM sodium diphosphate], and orally administered to the mice. After 30 minutes, 2 g/kg of glucose was orally administered to the mice in all the groups. Thereafter, the mice were immediately put into a metabolic cage, and urine was collected for 24 hours. The mice were freely fed an hour after the administration of glucose.
The results obtained from the test, that is, the results obtained by measuring urinary glucose excretion in the C57BL/6 male mice according to the compounds of the Examples, are listed in Table 5.

COc1ccc(Cc2cc([C@@H]3O[C@H](CO)[C@@H](O)[C@H](O)[C@H]3O)cc3c2CCC3)cc1 [Example 14, (2R,3S,4R,5R,6S)-2-(hydroxymethyl)-6-(7-(4-methoxybenzyl)-2,3-dihydro-1H-inden-5-yl)tetrahydro-2H-pyran-3,4,5-triol]
pIC50 (hSGLT1): 7.50 | pIC50 (hSGLT2): 8.40

Cc1ccc(Cc2cc([C@@H]3O[C@H](CO)[C@@H](O)[C@H](O)[C@H]3O)cc3c2CCC3)cc1 [Example 15, (2R,3S,4R,5R,6S)-2-(hydroxymethyl)-6-(7-(4-methylbenzyl)-2,3-dihydro-1H-inden-5-yl)tetrahydro-2H-pyran-3,4,5-triol]
pIC50 (hSGLT1): 8.11 | UGE (C57BL/6 male mice): 8.1 mg/20 g/24 hr | pIC50 (hSGLT2): 8.02

CCc1ccc(Cc2cc([C@@H]3O[C@H](CO)[C@@H](O)[C@H](O)[C@H]3O)cc3c2CCC3)cc1 [Example 16, (2S,3R,4R,5S,6R)-2-(7-(4-ethylbenzyl)-2,3-dihydro-1H-inden-5-yl)-6-(hydroxymethyl)tetrahydro-2H-pyran-3,4,5-triol]
pIC50 (hSGLT1): 7.26 | UGE (C57BL/6 male mice): 16.4 mg/20 g/24 hr | pIC50 (hSGLT2): 8.25

OC[C@H]1O[C@@H](c2cc3c(c(Cc4ccc(OC(F)(F)F)cc4)c2)CCC3)[C@H](O)[C@@H](O)[C@@H]1O [Example 22, (2R,3S,4R,5R,6S)-2-(hydroxymethyl)-6-(7-(4-(trifluoromethoxy)benzyl)-2,3-dihydro-1H-inden-5-yl)tetrahydro-2H-pyran-3,4,5-triol]
pIC50 (hSGLT1): 6.29 | UGE (C57BL/6 male mice): 9.6 mg/20 g/24 hr | pIC50 (hSGLT2): 8.04

OC[C@H]1O[C@@H](c2cc3c(c(Cc4ccc(C(F)(F)F)cc4)c2)CCC3)[C@H](O)[C@@H](O)[C@@H]1O [Example 24, (2R,3S,4R,5R,6S)-2-(hydroxymethyl)-6-(7-(4-(trifluoromethyl)benzyl)-2,3-dihydro-1H-inden-5-yl)tetrahydro-2H-pyran-3,4,5-triol]
pIC50 (hSGLT1): 6.57 | pIC50 (hSGLT2): 8.17

OC[C@H]1O[C@@H](c2cc3c(c(Cc4ccc5c(c4)OCO5)c2)CCC3)[C@H](O)[C@@H](O)[C@@H]1O [Example 29, (2S,3R,4R,5S,6R)-2-(7-(benzo[d][1,3]dioxol-5-ylmethyl)-2,3-dihydro-1H-inden-5-yl)-6-(hydroxymethyl)tetrahydro-2H-pyran-3,4,5-triol]
pIC50 (hSGLT1): 7.45 | pIC50 (hSGLT2): 8.46

OC[C@H]1O[C@@H](c2cc3c(c(Cc4ccc5c(c4)OCCO5)c2)CCC3)[C@H](O)[C@@H](O)[C@@H]1O [Example 30, (2S,3R,4R,5S,6R)-2-(7-((2,3-dihydrobenzo[1,4]dioxin-6-yl)methyl)-2,3-dihydro-1H-inden-5-yl)-6-(hydroxymethyl)tetrahydro-2H-pyran-3,4,5-triol]
pIC50 (hSGLT1): 7.26 | UGE (C57BL/6 male mice): 7.2 mg/20 g/24 hr | pIC50 (hSGLT2): 8.46

CC(C)(C)c1ccc(Cc2cc([C@@H]3O[C@H](CO)[C@@H](O)[C@H](O)[C@H]3O)cc3c2CCC3)cc1 [Example 31, (2S,3R,4R,5S,6R)-2-(7-(4-(tert-butyl)benzyl)-2,3-dihydro-1H-inden-5-yl)-6-(hydroxymethyl)tetrahydro-2H-pyran-3,4,5-triol]
pIC50 (hSGLT1): 6.75 | pIC50 (hSGLT2): 8.24

Cc1ccc(Cc2cc([C@@H]3O[C@H](CO)[C@@H](O)[C@H](O)[C@H]3O)cc3c2CCC3)cc1C [Example 32, (2S,3R,4R,5S,6R)-2-(7-(3,4-dimethylbenzyl)-2,3-dihydro-1H-inden-5-yl)-6-(hydroxymethyl)tetrahydro-2H-pyran-3,4,5-triol]
pIC50 (hSGLT1): 7.20 | pIC50 (hSGLT2): 8.35

OC[C@H]1O[C@@H](c2cc3c(c(Cc4ccc(OCC(F)(F)F)cc4)c2)CCC3)[C@H](O)[C@@H](O)[C@@H]1O [Example 34, (2R,3S,4R,5R,6S)-2-(hydroxymethyl)-6-(7-(4-(2,2,2-trifluoroethoxy)benzyl)-2,3-dihydro-1H-inden-5-yl)tetrahydro-2H-pyran-3,4,5-triol]
pIC50 (hSGLT1): 6.26 | pIC50 (hSGLT2): 7.87

OC[C@H]1O[C@@H](c2cc3c(c(Cc4ccc(-c5ccc(F)cc5)s4)c2)CCC3)[C@H](O)[C@@H](O)[C@@H]1O [Example 36, (2S,3R,4R,5S,6R)-2-(7-((5-(4-fluorophenyl)thiophen-2-yl)methyl)-2,3-dihydro-1H-inden-5-yl)-6-(hydroxymethyl)tetrahydro-2H-pyran-3,4,5-triol]
pIC50 (hSGLT1): 7.07 | pIC50 (hSGLT2): 8.05

OC[C@H]1O[C@@H](c2cc3c(c(Cc4cc5ccccc5s4)c2)CCC3)[C@H](O)[C@@H](O)[C@@H]1O [Example 37, (2S,3R,4R,5S,6R)-2-(7-(benzo[b]thiophen-2-ylmethyl)-2,3-dihydro-1H-inden-5-yl)-6-(hydroxymethyl)tetrahydro-2H-pyran-3,4,5-triol]
pIC50 (hSGLT1): 7.70 | UGE (C57BL/6 male mice): 14.5 mg/20 g/24 hr | pIC50 (hSGLT2): 8.05

OC[C@H]1O[C@@H](c2cc3c(c(Cc4ccc(C5CC5)cc4)c2)CCC3)[C@H](O)[C@@H](O)[C@@H]1O [Example 38, (2S,3R,4R,5S,6R)-2-(7-(4-cyclopropylbenzyl)-2,3-dihydro-1H-inden-5-yl)-6-(hydroxymethyl)tetrahydro-2H-pyran-3,4,5-triol]
pIC50 (hSGLT1): 7.60 | UGE (C57BL/6 male mice): 14.8 mg/20 g/24 hr | pIC50 (hSGLT2): 8.24

OC[C@H]1O[C@@H](c2cc3c(c(Cc4ccc(Cl)cc4)c2)CCC3)[C@H](O)[C@@H](O)[C@@H]1O [Example 40, (2S,3R,4R,5S,6R)-2-(7-(4-chlorobenzyl)-2,3-dihydro-1H-inden-5-yl)-6-(hydroxymethyl)tetrahydro-2H-pyran-3,4,5-triol]
pIC50 (hSGLT1): 6.68 | pIC50 (hSGLT2): 7.54
